Measured values reported in ChEMBL document CHEMBL1143846, “Clinical pharmacodynamics of meropenem in patients with lower respiratory tract infections” (Antimicrob Agents Chemother, 2007).
Converted amounts (≈) assume the structure as drawn.

Experiments:
[1] = species on record: Homo sapiens; assay: fAUC in patient with lower respiratory tract infection; format: ADME, organism-based; settings: in vivo
[2] = Ratio of fAUC to MIC in patient with lower respiratory tract infection; format: ADME; settings: human
[3] = tested on: Streptococcus pneumoniae; assay: Antimicrobial activity against Streptococcus pneumoniae; format: functional
[4] = tested on: Haemophilus influenzae; assay: Antimicrobial activity against Haemophilus influenzae; format: functional
[5] = Ratio of fCmin to MIC in patient with lower respiratory tract infection; format: ADME; settings: human
[6] = tested on: Klebsiella pneumoniae; assay: Antimicrobial activity against Klebsiella pneumoniae; format: functional
[7] = species on record: Homo sapiens; assay: ft>MIC in patient with lower respiratory tract infection; format: ADME, organism-based; settings: in vivo
[8] = species on record: Homo sapiens; assay: fCmin in patient with lower respiratory tract infection; format: ADME, organism-based; settings: in vivo
[9] = Ratio of fCmax to MIC in patient with lower respiratory tract infection; format: ADME; settings: human
[10] = tested on: Staphylococcus aureus; assay: Antimicrobial activity against methicillin-susceptible Staphylococcus aureus; format: functional
[11] = tested on: Pseudomonas aeruginosa; assay: Antimicrobial activity against Pseudomonas aeruginosa; format: functional
[12] = species on record: Homo sapiens; assay: fCmax in patient with lower respiratory tract infection; format: ADME, organism-based; settings: in vivo

A fAUC [1] of 157.43 µg·h/mL, a Ratio [2] of 6683.38 and an MIC [3] of 0.06 µg/mL (≈ 0.156 µM) were found for `C[C@@H](O)[C@H]1C(=O)N2C(C(=O)O)=C(S[C@@H]3CN[C@H](C(=O)N(C)C)C3)[C@H](C)[C@H]12` [MEROPENEM] in this work. It also gave an MIC [4] of 0.06 µg/mL (≈ 0.156 µM), a Ratio [5] of 34.24 and an MIC [6] of 0.06 µg/mL (≈ 0.156 µM). The “fT>MIC” value [7] was 91%, the fCmin [8] was 0.91 µg/mL and the Ratio [9] was 1427.66. The MIC [10] was 0.06 µg/mL (≈ 0.156 µM), the MIC [11] was 0.06 µg/mL (≈ 0.156 µM) and the fCmax [12] was 32.27 µg/mL.
